Laboratory results from US10111889B2, “Uses of ganaxolone” (priority 2014, dated 2018).

Columns and labels:
wild-type (RR) mice = experiment: EEG monitoring of SWDs in wild-type (RR) mice after blocking cortical tonic inhibition; assay type: in vivo, mouse
Text: The present study used wild-type Harlan C57BL/6J-OlaHsd and γ2R43Q knock-in mice bred into a background of C57BL/6J-OlaHsd mice. Behavioral and electrographic markers of absence epilepsy in these animals were confirmed by video-EEG monitoring. In-depth detailing of surgery and electrode implantation are described in the prior art. Briefly, P24 mice were implanted, under isoflurane anesthesia (1%-2% in 100% O2), for chronic EEG recordings with gold plated miniature screw electrodes over the right and left frontal and parietal cortices, and one over the cerebellum as reference. Two vinyl-coated braided stainless steel wire electrodes were placed in the nuchal muscle for electromyogram (EMG) recording of muscle activity. All electrodes were gathered into a flexible cable and connected to the Multichannel Neurophysiology Recording system (Tucker-Davis Technologies, TDT, Alachua, Fla., USA). […] Continuous EEG recordings with occasional video monitoring were made and SWDs were scored off-line. […] Only SWD events that occurred >2 min from slow-wave-sleep periods were used for quantification. SWD event durations were measured from the first synchronized positive peak signal to the last synchronized positive peak within an event. […]
When comparing normally distributed data, two groups were assessed with a t-test and comparisons of three or more were assessed with ANOVA. […]

GABAA receptor = experiment: Whole-cell patch clamp, tonic/holding current in somatosensory cortical layer II/III pyramidal cells of brain slices; assay type: cell-based, mouse; settings: 30 μM
Procedure: Horizontal slices (400 μm) were prepared from the brains of C57BL/6J mice RR and RQ mice of either sex (16-26 days old). […] Mice were anesthetized with isoflurane, decapitated, and the brain was removed and placed in ice-cold cutting solution containing (in mM): 125 NaCl, 25 NaHCO3, 2.5 KCl, 1.25 NaH2PO4, 0.5 CaCl2, 3.35 MgCl2, 25 D-Glucose, 13.87 M sucrose, and bubbled with 95% O2 and 5% CO2. Slices were cut using a vibratome (Leica VT 1000S, Global Medical Imaging; Ramsey, Minn.) and placed in an incubation chamber containing standard 2 mM CaCl2, 1 mM MgCl2 artificial cerebrospinal fluid (ACSF) at room temperature for 1 hour before being used for recordings. Whole cell patch-clamp recordings were made from somatosensory cortical layer II/III pyramidal cells or ventrobasal thalamic relay cells, visualized using an upright differential interference contrast microscope (Axioskop FS2, Zeiss; Oberkochen, Germany). […]
Additional segments (30 s) just prior to and 90 s after bicuculline administration were analyzed to quantify inhibitory tonic currents. […] Tonic current was calculated as the difference between the fitted Gaussian means before and after bicuculline administration. Current density (pA/pF) was calculated by dividing the current by cell capacitance.

WAG/Rij mice = settings: administered directly into somatosensory cortex; cited from earlier work
wild-type mice = settings: thalamus of wild-type mice; cited from earlier work
[1] = clinical trials; even at very high doses; cited from earlier work
RQ mice = experiment: Evaluation of sleep patterns (video and EEG) in RQ mice; assay type: in vivo, mouse; settings: 2 mg/kg i.p. on two consecutive days
Text: RR and RQ mice (n=3 each) were monitored with video and EEG recordings. […] Sleep stages (Wake, NREM and REM) were scored visually from the EEG by an experienced scorer. For statistical analysis, EEG delta power (0.5-4 Hz) was normalized by dividing by the sum of power in the non-delta bands (6-100 Hz).

Structure (SMILES): CCOC(=O)c1ncn2c1C1CCCN1C(=O)c1cc(OC)ccc1-2 (stereo not shown) [L655,708, 11,12,13,13a-Tetrahydro-7-methoxy-9-oxo-9H-imidazo[1,5-a]pyrrolo[2,1-c][1,4]benzodiazepine-1-carboxylic acid, ethyl ester]
- SWD generation in RR mice (wild-type (RR) mice; 2 mg/kg i.p.): produced SWDs
- persistence of SWDs after the last injection (wild-type (RR) mice; injected twice a day for 2 consecutive days, wild-type mice): still displayed SWDs 3 days after the last injection
- tonic current in RR somatosensory cortical layer II/III cells (GABAA receptor): completely blocked

Structure (SMILES): CC(=O)[C@H]1CC[C@H]2[C@@H]3CC[C@H]4C[C@H](O)CC[C@]4(C)[C@H]3CC[C@]12C [allopregnanolone]
- number of SWDs observed (WAG/Rij mice): decreases the number of SWDs

Structure (SMILES): Oc1noc2c1CCNC2 [THIP, 4,5,6,7-tetrahydroisoxazolo[5,4-c]pyridin-3-ol]
- SWDs associated with absence epilepsy (wild-type mice): produces the SWDs

Structure (SMILES): CC(=O)[C@H]1CC[C@H]2[C@@H]3CC[C@H]4C[C@](C)(O)CC[C@]4(C)[C@H]3CC[C@]12C [GANX, 3α-hydroxy-3β-methyl-5α-pregnan-20-one]
- side effects [1]: relatively modest side effects
- number of SWDs observed (WAG/Rij mice): decreases the number of SWDs
- briefer Wake durations of RQ mice (RQ mice; RQ mice): not reversed
- shorter brief awakenings (<=16 seconds) of RQ mice (RQ mice; RQ mice): not altered
- shorter durations of single NREM episodes of RQ mice (RQ mice; RQ mice): reversed by GANX to normal levels
- higher normalized delta power of RQ mice (RQ mice; RQ mice, normal sleep time (daylight)): reversed by GANX toward normal levels
- durations of REM (RQ mice; RR, RQ, RQ with GANX): No groups differed
- number of brief awakenings (RQ mice; RR, RQ, RQ with GANX): did not differ between any groups
